Experimental data taken from PMC10178204, “Peptaibol Analogs Show Potent Antibacterial Activity against Multidrug Resistant Opportunistic Pathogens” (International Journal of Molecular Sciences, 2023).
In brackets after ≈: the same amount, converted by molar mass. Non-standard residues stand in square brackets, D forms with d. Residues, ends and D or L forms follow the SMILES beside them. *: point of attachment. Octanoyl = CCCCCCCC(=O)*; Aib = CC(C)(N)C(=O)O

Columns and labels:
[1] = test system: Staphylococcus aureus ATCC 25923; conditions: for MIC Sau: MHB, 5 × 10^5 CFU/mL, 18 h, 35 °C, triplicate
Description: (§1) The antibacterial activity of the peptides was initially assessed on a panel of representative Gram-positive and Gram-negative organisms of high clinical relevance and commonly responsible for bacterial infections in both animals and humans. Bacillus subtilis ATCC 6633 (Bsu) was also included as a rod-shaped model Gram-positive organism. This first panel comprised: Enterococcus faecalis ATCC 29212 (Efa); Streptococcus pyogenes ATCC 12344 (Spy); and Staphylococcus aureus ATCC 25923 (Sau); Gram-negative: Escherichia coli CCUGT (Eco), Klebsiella pneumoniae ATCC 13833 (Kpn), Acinetobacter baumannii ATCC 17978 (Aba), and Pseudomonas aeruginosa ATCC 27853 (Pae) (Table 2). Both the minimum inhibitory concentration (MIC, Table 2) and the minimum bactericidal concentration (MBC, Table S1, Supporting Material) were determined.
(§2) The minimum inhibitory concentration (MIC) and the minimum bactericidal concentration (MBC) of the compounds were determined in triplicate using Mueller–Hinton broth (MHB). […] Therefore, we decided to dissolve all peptides in DMSO to a final concentration of 25 mg/mL, for consistency. The bacteria inoculum was 5 × 10^5 CFU/mL, as recommended by CLSI (Document M07-A10, 2015). […] Reference-type strains, including representatives of both Gram-positive bacteria (Bacillus subtilis ATCC 6633, Enterococcus faecalis ATCC 29212, Staphylococcus aureus ATCC 25923, the methicillin-resistant Staphylococcus aureus ATCC 43300 (MRSA), Streptococcus pyogenes ATCC 12344) and Gram-negative bacteria (Escherichia coli CCUGT, Klebsiella pneumoniae ATCC 13833, Pseudomonas aeruginosa ATCC 27853, and Acinetobacter baumannii ATCC 17978), were acquired from ATCC or CCUG culture collections. Other antibiotic-resistant clinical isolates were present in our collection at the University Teaching Hospital (Azienda Ospedaliero-Universitaria Senese ‘Santa Maria alle Scotte’) in Siena, Tuscany, Italy. Specifically, MDR carbapenem-hydrolyzing class D β-lactamase-producing Acinetobacter baumannii and metallo-β-lactamase-producing Pseudomonas aeruginosa were used in this study (Table 4).

[2] = test system: Acinetobacter baumannii ATCC 17978; conditions: for MIC Aba: MHB, 5 × 10^5 CFU/mL, 18 h, 35 °C, triplicate
Description: as §1, §2

[3] = test system: Streptococcus pyogenes ATCC 12344; conditions: for MIC Spy: MHB, 5 × 10^5 CFU/mL, 18 h, 35 °C, triplicate
Description: as §1, §2

[4] = test system: Klebsiella pneumoniae ATCC 13833; conditions: for MIC Kpn: MHB, 5 × 10^5 CFU/mL, 18 h, 35 °C, triplicate
Description: as §1, §2

[5] = test system: Bacillus subtilis ATCC 6633; conditions: for MBC Bsu: ATCC 6633, 18 h; for MIC Bsu: MHB, 5 × 10^5 CFU/mL, 18 h, 35 °C, triplicate
Description: as §1, §2

[6] = test system: Pseudomonas aeruginosa ATCC 27853; conditions: for MIC Pae: MHB, 5 × 10^5 CFU/mL, 18 h, 35 °C, triplicate
Description: as §1, §2

[7] = test system: Enterococcus faecalis ATCC 29212; conditions: for MIC Efa: MHB, 5 × 10^5 CFU/mL, 18 h, 35 °C, triplicate
Description: as §1, §2

Escherichia coli CCUGT = conditions: 18 h; for MIC Eco: MHB, 5 × 10^5 CFU/mL, 35 °C, triplicate
Description: as §1, §2

## CCCCCCCC(=O)NC(C)(C)C(=O)N[C@@H](CCCCN)C(=O)N[C@@H](CCCCN)C(=O)N[C@@H](CC(C)C)C(=O)NC(C)(C)C(=O)NCC(=O)N[C@H](C(=O)N[C@@H](CC(C)C)C(N)=O)[C@@H](C)CC [Peptide 12, 1-Oct-Aib-Lys-Lys-Leu-Aib-Gly-Ile-Leu-NH2] (Octanoyl-[Aib]KKL[Aib]GIL-NH2)
[1]; ATCC 25923, 18 h
  MBC Sau: 16 µg/mL (≈ 16.6 µM)
[1]
  MIC Sau: 16 µg/mL (≈ 16.6 µM)
[2]; ATCC 17978, 18 h
  MBC Aba: 32 µg/mL (≈ 33.1 µM)
[2]
  MIC Aba: 32 µg/mL (≈ 33.1 µM)
[3]; ATCC 12344, 18 h
  MBC Spy: 16 µg/mL (≈ 16.6 µM)
[3]
  MIC Spy: 16 µg/mL (≈ 16.6 µM)
[4]; ATCC 13833, 18 h
  MBC Kpn: > 128 µg/mL
[4]
  MIC Kpn: 64 µg/mL (≈ 66.2 µM)
[5]
  MBC Bsu: 16 µg/mL (≈ 16.6 µM)
  MIC Bsu: 4 µg/mL (≈ 4.14 µM)
[6]; ATCC 27853, 18 h
  MBC Pae: > 128 µg/mL
[6]
  MIC Pae: 64 µg/mL (≈ 66.2 µM)
[7]; ATCC 29212, 18 h
  MBC Efa: 32 µg/mL (≈ 33.1 µM)
[7]
  MIC Efa: 32 µg/mL (≈ 33.1 µM)
Escherichia coli CCUGT; CCUGT
  MBC Eco: 64 µg/mL (≈ 66.2 µM)
Escherichia coli CCUGT
  MIC Eco: 16 µg/mL (≈ 16.6 µM)

## CCCCCCCC(=O)NC(C)(C)C(=O)N[C@@H](CCCCN)C(=O)N[C@@H](CCCCN)C(=O)N[C@@H](CC(C)C)C(=O)N[C@@H](CC(C)C)C(N)=O [Peptide 13, 1-Oct-Aib-Lys-Lys-Leu-Leu-NH2] (Octanoyl-[Aib]KKLL-NH2)
[1]
  MIC Sau: > 128 µg/mL
[2]
  MIC Aba: > 128 µg/mL
[3]
  MIC Spy: > 128 µg/mL
[4]
  MIC Kpn: > 128 µg/mL
[5]
  MBC Bsu: 64 µg/mL (≈ 90 µM)
  MIC Bsu: 32 µg/mL (≈ 45 µM)
[6]
  MIC Pae: > 128 µg/mL
[7]
  MIC Efa: > 128 µg/mL
Escherichia coli CCUGT
  MIC Eco: > 128 µg/mL

## CCCCCCCC(=O)N[C@@H](CC(C)C)C(=O)NC(C)(C)C(=O)N[C@@H](CCCCN)C(=O)N[C@H](C(N)=O)[C@@H](C)CC [Peptide 14, 1-Oct-Leu-Aib-Lys-Ile-NH2] (Octanoyl-L[Aib]KI-NH2)
[1]
  MIC Sau: > 128 µg/mL
[2]
  MIC Aba: > 128 µg/mL
[3]
  MIC Spy: > 128 µg/mL
[4]
  MIC Kpn: > 128 µg/mL
[5]
  MIC Bsu: > 128 µg/mL
[6]
  MIC Pae: > 128 µg/mL
[7]
  MIC Efa: > 128 µg/mL
Escherichia coli CCUGT
  MIC Eco: > 128 µg/mL

## CCCCCCCC(=O)N[C@@H](CC(C)C)C(=O)NC(C)(C)C(=O)N[C@@H](CCCCN)C(=O)N[C@@H](CC(C)C)C(N)=O [Peptide 16, 1-Oct-Leu-Aib-Lys-Leu-NH2] (Octanoyl-L[Aib]KL-NH2)
[1]
  MIC Sau: > 128 µg/mL
[2]
  MIC Aba: > 128 µg/mL
[3]
  MIC Spy: > 128 µg/mL
[4]
  MIC Kpn: > 128 µg/mL
[5]
  MIC Bsu: > 128 µg/mL
[6]
  MIC Pae: > 128 µg/mL
[7]
  MIC Efa: > 128 µg/mL
Escherichia coli CCUGT
  MIC Eco: > 128 µg/mL

## CCCCCCCC(=O)N[C@@H](CCCCN)C(=O)N[C@@H](CC(C)C)C(=O)NC(C)(C)C(=O)N[C@@H](CC(C)C)C(N)=O [Peptide 17, 1-Oct-Lys-Leu-Aib-Leu-NH2] (Octanoyl-KL[Aib]L-NH2)
[1]
  MIC Sau: > 128 µg/mL
[2]
  MIC Aba: > 128 µg/mL
[3]
  MIC Spy: > 128 µg/mL
[4]
  MIC Kpn: > 128 µg/mL
[5]
  MIC Bsu: > 128 µg/mL
[6]
  MIC Pae: > 128 µg/mL
[7]
  MIC Efa: > 128 µg/mL
Escherichia coli CCUGT
  MIC Eco: > 128 µg/mL

## CCCCCCCC(=O)N[C@@H](CC(C)C)C(=O)N[C@@H](CCCCN)C(=O)NC(C)(C)C(=O)N[C@@H](CC(C)C)C(N)=O [Peptide 18, 1-Oct-Leu-Lys-Aib-Leu-NH2] (Octanoyl-LK[Aib]L-NH2)
[1]
  MIC Sau: > 128 µg/mL
[2]
  MIC Aba: > 128 µg/mL
[3]
  MIC Spy: 128 µg/mL (≈ 220 µM)
[4]
  MIC Kpn: > 128 µg/mL
[5]
  MBC Bsu: > 128 µg/mL
  MIC Bsu: 128 µg/mL (≈ 220 µM)
[6]
  MIC Pae: > 128 µg/mL
[7]
  MIC Efa: > 128 µg/mL
Escherichia coli CCUGT
  MIC Eco: > 128 µg/mL
